Tests used:
[1] = system: BAX, Cleaved Caspase 3, Cleaved Caspase 9, Cyto-C, Apaf-1 in SH-SY5Y cells; test: Western blot of apoptosis related proteins in Aβ1-42 induced cell model; type: cell-based; details: 25 μM Aβ1-42 induced model
Protocol: Protein samples (25–40 μg) were separated using 10 % SDS-PAGE and subsequently transferred onto PVDF membranes (0.22 μm, Servicebio, Guangzhou, China) via electro transfer. Following blocking with TBST solution (Servicebio, Guangzhou, China) containing 5 % BSA (Solarbio, Beijing, China) for approximately 60 min at room temperature, the membrane was exposed to various primary antibodies overnight at 4 °C on a rotating shaker. Then, the membranes were incubated with HRP-conjugated secondary antibody (Affinity, Changzhou, China) for 2 h. Protein bands were then detected using an ECL kit. The signal intensity of each target protein was quantified using Image J 1.8.0 software (Bio-Rad Laboratories, California, USA).
Primary antibodies for Western blot analysis include BCL-2 (affinity biosciences OH, Cat# AF6139, USA), BAX (affinity biosciences OH, Cat# AF0120, USA), VEGF (affinity biosciences OH, Cat# AF5131, USA), C-MYC (affinity biosciences OH, Cat# AF0358, USA), Caspase9 (affinity biosciences OH, Cat# AF6348, USA), cleaved-Caspase9 (affinity biosciences OH, Cat# AF5240, USA), Caspase3 (affinity biosciences OH, Cat# AF6311, USA), cleaved-Caspase3 (affinity biosciences OH, Cat# AF7022, USA), and Cyto-C (affinity biosciences OH, Cat# AF6139, USA).

SH-SY5Y cells = test: JC-1 / Mito-tracker / H2DCFDA / Ca2+ staining in Aβ1-42 induced cell model; type: cell-based; details: 25 μM Aβ1-42 induced model
Protocol: SH-SY5Y cells were plated on 96 well plates. After 24h treatment with or without B14 in 25 μM Aβ1-42 induced cell model, the cells were washed for three times with cold PBS. Then cells were incubated with Hoechst 33342 solution (Sigma, 10 μg/mL) and H2DCFDA probe (10 μM, sigma), as well as Mito-tracker deep red (100 nM, sigma) for 10 min at 37 °C in the dark. All the samples were photographed by using FV3000 (Olympus). SH-SY5Y cells were plated on 6 well plates. After 24h treatment with B14 in 25 μM Aβ1-42 induced cell model, cells were incubated with JC-1 (5 μg/mL, sigma) for 30 min at 37 °C in the dark. Fluorescence detection was carried out by using EVOS FL Auto.

APP/PS1 transgenic mice = test: Novel object recognition (NOR); type: in vivo; details: B14 10, 20, 40 mg/kg i.p. every other day
Description: Five months old male APP/PS1 mice, weighing 25–33 g, were purchased from Guangdong Medical Laboratory Animal Center and housed in the Laboratory Animal Center of Sun Yat-sen University (Guangzhou, China) for experimentation. All procedures were approved by the Animal Care and Use Committee of Sun Yat-sen University and complied with legal requirements and national guidelines for the care and maintenance of laboratory animals (Approval No. SYSU-IACUC-2024-002032). The mice were housed in a specific pathogen-free environment with a controlled temperature of 22 ± 1 °C and a 12-h dark/light cycle. The mice were fed with a standard diet, and 30 mice were randomly divided into 6 groups (N = 5). Compound B14 was dissolved in saline and administered at doses of 10, 20, or 40 mg/kg. […]
The spatial memory and learning abilities of the mice were assessed using Morris water maze (MWM), novel object recognition (NOR) and nesting experiments (NBT). The anxiety and depressive behaviors were evaluated through the open field test (OFT) and elevated plus maze (EPM). […]
The novel object recognition (NOR) test evaluates mice's memory for familiar objects and their exploration of novel objects. […] The time spent exploring each object was recorded. The mice's learning and memory abilities were assessed by calculating the preference index (PI) using the formula PI = tB / (tA1 + tB).

[2] = system: BCL-2 promoter C-rich sequence; test: EMSA of BCL-2 i-motif formation; type: binding; details: pH 6.2; 1, 5, 10 eq
Protocol: Figure S5. ESI-MS, UV, CD, and EMSA experiments were performed to examine the effect of B14 on BCL-2 promoter i-motif and G-quadruplex. (A) ESI-MS experiment for oligomer BCL-2 G4 alone, which was annealed in 1 × BPES buffer at pH 7.4. (B) ESI-MS experiment for above oligomer BCL-2 G4 with addition of B14 in 1 × BPES buffer at pH 7.4. (C-D) TO displacement with increasing amount of oligomer BCL-2 i-motif annealed in 1 X BPES buffer at pH 5.5 in the presence of 20 equivalents of B14 or A22. (E) EMSA experiment was performed for the effect of B14 on inducing BCL-2 i-motif formation. The lanes from left to right were as follow: BCL-2 i-motif alone at pH 5.5; BCL-2 i-motif alone at pH 6.2; BCL-2 i-motif plus 1 eq B14 at pH 6.2; BCL-2 i-motif plus 5 eq B14 at pH 6.2; BCL-2 i-motif plus 10 eq B14 at pH 6.2. (F) CD experiment was performed to study the interaction of B14 or A22 with BCL-2 promoter i-motif.
The DNA oligonucleotides were diluted to 5 μM with 1 × BPES buffer at pH 5.5 or pH 6.2, and different equivalents of compound were added. The mixtures were annealed at 95 °C for 10 min, gradually cooled to room temperature, and incubated at 4 °C overnight. Electrophoresis was carried out using 20% acrylamide Native PAGE (pH 6.4) with 1 × Tris-borate-EDTA (TBE) as running buffer (pH 6.4) at 80 V for 7 h at 4 °C. The gels were then silver-stained and photographed.

## O=C(CCN1CCOCC1)Nc1ccc2c(c1)c(=O)c1cc(NC(=O)CCN3CCOCC3)ccc1n2-c1ccc2occc2c1 [Compound B14]
[1]
  levels of pro-apoptotic proteins (Western blot): decreased levels of pro-apoptotic proteins
SH-SY5Y cells
  intracellular Ca^2+ (Fluo-5AM): could modulate aberrantly metabolized Ca^2+ in model cells in a dose-dependent manner
  oxidative stress (H2DCFDA) and mitochondrial number (MitoTracker): could attenuate oxidative stress without changing mitochondrial number
  red/green fluorescence intensity ratio (JC-1, mitochondrial membrane potential): could reduce the occurrence of early apoptosis
APP/PS1 transgenic mice
  times to touch new objects and index of preference (NOR): significantly increased
[2]
  i-motif migration band (EMSA): could induce BCL-2 i-motif formation in a dose-dependent manner

— paper PMC11982498 (Redox Biology, 2025)
